From US12065468B2, “Heme-binding small peptide” (priority 2021, dated 2024)
“Also recorded” adds a separate entry of the source.

What was measured:
[1] = system: ndvA (FeuP regulated), SMc 01581 (ExoS regulated); experiment: qRT-PCR of FeuP and ExoS regulated genes; assay type: cell-based, Sinorhizobium meliloti; conditions: 2 μM, 30 mins; listed as L-NCR247
Excerpt: FIG. 17. […] The data are expressed as starting quantities (SQ) of respective mRNAs normalized to the control gene SMc00128 and are presented as average of three technical replicates FIG. 18. NCR247 binds heme and this heme sequestration leads to an iron starvation response in S. meliloti and this happens in the cytoplasm since a bacA mutant is defective in inducing iron import genes. […] The data are expressed as starting quantities (SQ) of respective mRNAs normalized to the control gene SMc00128 and are presented as average of three technical replicates. […] Data are presented as average of three technical replicates
RNA isolation and qRT-PCR analysis: Cells were grown in LB until they reached an O.D.600 nm of 0.2. Then cells were spun down and suspended in minimal media with or without appropriate FeSO4 concentrations for 1 hour. NCR247 was then added and 5 ml of appropriate cultures were spun down at given time intervals. Total RNA was extracted using Trizol™ (Thermo Fisher Scientific) method. Qiagen RNeasy™ kit was used to purify the RNA. […] The standard curve method was used for relative quantification. […] This curve was then used for extrapolating relative expression level of each gene of interest in a particular sample to obtain the starting quantities (SQ). […] These normalized values are then expressed as an average of triplicates, with standard deviation (s.d.) represented by the error bars. […]

[2] = system: iron uptake genes (hmuP, foxA, fhuP, rhrA, fbpA), rirA; experiment: qRT-PCR of iron-related genes in S. meliloti; assay type: cell-based, Sinorhizobium meliloti; conditions: 30 mins; for expression of iron uptake genes: 2 μM (NSR247 up to 15 uM)
Description: RNA isolation and qRT-PCR analysis: Cells were grown in LB until they reached an O.D.600 nm of 0.2. Then cells were spun down and suspended in minimal media with or without appropriate FeSO4 concentrations for 1 hour. NCR247 was then added and 5 ml of appropriate cultures were spun down at given time intervals. Total RNA was extracted using Trizol™ (Thermo Fisher Scientific) method. Qiagen RNeasy™ kit was used to purify the RNA. On-column DNA removal was carried out using DNase I from NEB. 500 ng of each RNA sample was used to make cDNA using the iScript™ cDNA synthesis kit (Biorad). qRT-PCRs were performed as described previously^86. The standard curve method was used for relative quantification. In short, a standard curve was generated for each gene of interest (including SMc00128) by setting up qpCR reactions to amplify increasing amounts of S. meliloti Rm 1021 genomic DNA. […] This curve was then used for extrapolating relative expression level of each gene of interest in a particular sample to obtain the starting quantities (SQ). This value is then normalized to the SQ values of SMc00128 obtained for respective sample. […] These normalized values are then expressed as an average of triplicates, with standard deviation (s.d.) represented by the error bars.

[3] = system: S. meliloti; experiment: ICP-MS iron content of cells; assay type: cell-based, Sinorhizobium meliloti; conditions: 2 μM
Description: ICP-MS: 200 μL of protein sample was mixed with 2 ml of 2% HNO3 and ICP-MS was performed as described previously^84. For bacterial samples, 1 ml of sample was spun down and the pellet was resuspended in 40 μL of 100% HNO3 and heated at 98° C. for 1 hour. The supernatant of the solution was mixed with metal free water to make up to 2 mL and ICP-MS analysis was performed as described previously^84. Same number of cells were spun down for protein analysis through […] and data were normalized to the amount of protein in each sample. For ICP-MS analysis of nodules same procedure was followed, except nodules were first crushed in PBS, portion of sample kept aside for protein quantification and then remaining was treated with HNO3. Agilent ICP-MS instrumentation with MassHunter 4.4 was used to collect data.

[4] = UV-Vis spectroscopy / colour change on heme addition; assay type: binding
Description: Heme preparation: Hemin solutions were always prepared in 0.1 M NaOH and used within 30 min of preparation. 1:1000 and 1:500 dilution of the stock solution was made and stock concentration was measured by pyridine hemochrome assay as described previously^85 by measuring the absorption at 557 nm using the extinction coefficient of pyridine hemochromogen (34.7 mM^−1 cm^−1).
UV-VIS spectroscopy: All absorption spectra were collected in a Tecan Spark™ 10 M microplate reader using black polystyrene 96-well plates. Absorbance from 300 nm to 700 nm was recorded with a 5 nm interval after an initial shaking at 100 rpm for 15 secs. Heme binding to synthesized peptide: Water (pH 7.4) was used in all reactions and was first added to the wells. Peptides solubilized in water were added and then heme solubilized in 0.1 M NaOH was added, mixed thoroughly and measurements were taken immediately. Peptide and heme volume were kept to a maximum of 5 ul in volume. For all the absorption curves (except Extended FIG. 3a) […] was used. The same was also repeated with 0.1 M Tris buffer (pH 7.4) as a base buffer instead of water.

[5] = system: Toxoplasma gondii; experiment: T. gondii plaque assay on human foreskin fibroblasts; assay type: cell-based; conditions: 6 hr. pre-treatment of parasites
Description: Parasite and host cell culture: T. gondii parasites (strain RH, ATCC 50838) were grown in human foreskin fibroblasts (HFFs) maintained in DMEM (GIBCO) supplemented with 3% inactivated fetal calf serum (IFS) and 10 μg/mL gentamicin (Thermo Fisher Scientific), referred to as D3. Where noted, DMEM supplemented with 10% IFS and 10 μg/mL gentamicin was used, referred to as D10.
Plaque Assays: Freshly lysed parasites were filtered through 5 μm filters and spun down at 1000×g and 18° C. for 10 min. Parasites were resuspended to 6E6 parasites/mL in Fluorobrite™ media supplemented with 3% IFS. Parasites were incubated with either peptide or vehicle for 6 hours at 37° C. and 5% CO2. Parasites were then spun down, washed once in 2 mL of Fluorobrite™ supplemented with 3% IFS, and resuspended in 1 mL of media. 2000 parasites were inoculated into each well of 6-well plates of HFFs maintained in D10 and allowed to grow undisturbed for 9 days. Plates were washed with PBS and fixed for 10 min at room temperature with 100% ethanol. Monolayers were visualized by staining for 5 min at room temperature with crystal violet solution, followed by two washes with PBS, one wash with water, and drying overnight.

RNGCIVDPRCPYQQCRRPLYCRRR [NCR247]
expression of FeuP and ExoS regulated genes [1]: increased in expression; also recorded: increase in expression of ndvA | expression of iron uptake genes [2]: increase in transcript levels of iron uptake genes | expression of iron uptake genes ([2]; listed as L-NCR247): increase in expression of hmuP | expression of rirA ([2]; 2 μM): rirA transcription was reduced | total iron content of cells [3]: elevated total iron content of the cells | total iron content of cells ([3]; listed as L-NCR247): Increase in Fe content | heme binding (absorption peaks 366 nm, ~450 nm; colour change) ([4]; heme added to peptide, ferric heme): bound within seconds; also recorded: binds heme | binding of ferrous heme ([4]; sodium dithionite-reduced Fe(II) heme): binds sodium dithionite-reduced Fe(II) ferrous heme | capacity of T. gondii to form plaques [5]: massive reduction in the capacity of the parasite to form plaques
